# Measured values as given in the supplement of paper PMC11061612.
# What was measured:
# Assay in all cases: Bliss excess, mean over the matrix (fraction); higher = more synergy
# RD (Rhabdomyosarcoma) = tested on: RD (Rhabdomyosarcoma)
# In short: (§1)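 After 24 hours at 37°C and 5% CO2 in 1536-well plates, cells in DMEM/F12 or RPMI plus 10% FBS received two-drug dose matrices for 72 hours. Viability came from CellTiter-Glo 2.0 luminescence and was scaled as inhibition, anchored at 0 by vehicle wells and at 1 by blank wells. Combination Emax is taken as the second-highest inhibition in the matrix, and Bliss excess as the observed combination effect less EA + EB − EA·EB, with EA and EB the single-agent effects.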
# [1] = tested on: SNU-398 (Hepatocellular Carcinoma)
# In short: as §1
# [2] = tested on: ST486 (Burkitt's Lymphoma)
# In short: as §1
# [3] = tested on: KYSE-270 (Esophageal Squamous Cell Carcinoma)
# In short: as §1
# [4] = tested on: NCI-H929 (Plasma Cell Myeloma)
# In short: as §1
# [5] = tested on: VMRC-RCZ (Kidney Carcinoma)
# In short: as §1
# [6] = tested on: RPMI-8226 (Plasma Cell Myeloma)
# In short: as §1
# [7] = tested on: 8505C (Thyroid Gland Carcinoma)
# In short: as §1
# [8] = tested on: SK-GT-2 (Gastric Carcinoma)
# In short: as §1
# [9] = tested on: NCI-H520 (Squamous Cell Lung Carcinoma)
# In short: as §1
# [10] = tested on: DAN-G (Pancreatic Carcinoma)
# In short: as §1
# [11] = tested on: NCI-H661 (Non-Small Cell Lung Carcinoma)
# In short: as §1
# [12] = tested on: HCC1419 (Breast Carcinoma)
# In short: as §1
# [13] = tested on: CW-2 (Colorectal Carcinoma)
# In short: as §1
# [14] = tested on: COR-L279 (Small Cell Lung Carcinoma)
# In short: as §1
# M059J (Glioblastoma) = tested on: M059J (Glioblastoma)
# In short: as §1
# SJSA-1 (Osteosarcoma) = tested on: SJSA-1 (Osteosarcoma)
# In short: as §1
# [15] = tested on: MOG-G-CCM (Low Grade Glioma)
# In short: as §1
# [16] = tested on: KMS-12-BM (Plasma Cell Myeloma)
# In short: as §1
# [17] = tested on: SK-GT-4 (Esophageal Adenocarcinoma)
# In short: as §1
Structure (SMILES),Bliss excess (RD (Rhabdomyosarcoma)),Bliss excess [1],Bliss excess [2],Bliss excess [3],Bliss excess [4],Bliss excess [5],Bliss excess [6],Bliss excess [7],Bliss excess [8],Bliss excess [9],Bliss excess [10],Bliss excess [11],Bliss excess [12],Bliss excess [13],Bliss excess [14],Bliss excess (M059J (Glioblastoma)),Bliss excess (SJSA-1 (Osteosarcoma)),Bliss excess [15],Bliss excess [16],Bliss excess [17]
"CC1(C)CCC(CN2CCN(c3ccc(C(=O)NS(=O)(=O)c4ccc(NCC5CCOCC5)c([N+](=O)[O-])c4)c(Oc4cnc5[nH]ccc5c4)c3)CC2)=C(c2ccc(Cl)cc2)C1 [Venetoclax] + Cc1cc2ncnn2cc1Nc1ncc2c(n1)n(C1CCOCC1)c(=O)n2C [AZD7648] (first compound max 1 µM, 7x7, partner max 10 µM)",-0.0373,-0.0427,-0.0376,-0.0281,0.0418,-0.0696,0.0285,-0.0088,-0.0053,0.0114,-0.0106,-0.0345,-0.0116,0.0049,-0.0405,-0.0144,-0.0404,-0.0528,0.0378,-0.093
"CC1(C)CCC(CN2CCN(c3ccc(C(=O)NS(=O)(=O)c4ccc(NCC5CCOCC5)c([N+](=O)[O-])c4)c(Oc4cnc5[nH]ccc5c4)c3)CC2)=C(c2ccc(Cl)cc2)C1 [Venetoclax] + Cn1cnc2c(F)c(Nc3ccc(Br)cc3Cl)c(C(=O)NOCCO)cc21 [Selumetinib] (first compound max 1 µM, 7x7, partner max 3 µM)",-0.0425,-0.0003,-0.141,-0.0202,0.027,-0.0422,0.0187,-0.0184,-0.0251,-0.0351,-0.0459,-0.0243,-0.0413,0.0239,0.0007,-0.0391,-0.0431,-0.0697,-0.0118,-0.0512
